Laboratory results from paper PMC4467398, “Preclinical antitumor activity of ST7612AA1: a new oral thiol-based histone deacetylase (HDAC) inhibitor” (Oncotarget, 2014).

Tested on: DOHH2 and TMD8 DLBCL cells
Test: Gene expression profiling (HumanHT-12 v4 BeadChip, limma), ST7612AA1 300 nM 8 hrs vs DMSO
Format: cell-based, human
Conditions: 300 nM 8 hrs vs DMSO

CC(=O)SCCCCC[C@H](NC(=O)[C@H]1CCC(=O)N1)C(=O)Nc1ccccc1 [ST7612AA1]
log ratio LOC285359 (ILMN_1675878): 6.44E-01 | log ratio LOC388588 (probe ILMN_1749834): 7.07E-01 | log ratio LOC389816 (ILMN_2249018): 6.55E-01 | log ratio LOC643384 (ILMN_3219806): -1.06E+00 | log ratio LOC644563 (ILMN_3207122): -1.31E+00 | log ratio LOC644988 (ILMN_3201485): 6.07E-01 | log ratio LOC646463 (ILMN_1721651): 6.71E-01 | log ratio LOC646786 (ILMN_1654915): 6.50E-01 | log ratio LOC646817 (ILMN_1702585): -1.11E+00 | log ratio LOC647784 (ILMN_1674710): 6.05E-01 | log ratio LOC650215 (ILMN_1743711): -8.77E-01 | log ratio LOC653566 (ILMN_1780382): -6.21E-01 | log ratio LOC654191 (probe ILMN_1762308): 7.84E-01 | log ratio LOC727935 (probe ILMN_1691616): 7.14E-01 | log ratio LOC728014 (probe ILMN_1711699): 8.58E-01 | log ratio LOC728492 (ILMN_1655444): -8.05E-01 | log ratio LOC728602 (ILMN_3305993): 6.70E-01 | log ratio LOC728650 (ILMN_3234615): -8.83E-01 | log ratio LOC729495 (probe ILMN_3297510): 7.45E-01 | log ratio LOC730101 (probe ILMN_3305735): 7.41E-01 | log ratio LOC730415 (probe ILMN_3228688): 6.95E-01 | log ratio LOC731049 (ILMN_1808591): 6.61E-01 | log ratio LOC731314 (probe ILMN_1785756): 8.31E-01 | log ratio LOC100128163 (probe ILMN_3182893): 7.83E-01 | log ratio LOC100130919 (ILMN_3176090): -8.14E-01 | log ratio LOC100131727 (probe ILMN_3292990): 7.73E-01 | log ratio LOC100131735 (ILMN_3208233): -5.90E-01 | log ratio LOC100132715 (ILMN_3211935): -5.93E-01 | log ratio LOC100133583 (probe ILMN_3214389): 8.94E-01 | log ratio LOC100133678 (probe ILMN_3249667): 8.11E-01 | log ratio LOC100134361 (probe ILMN_3241081): 8.59E-01 | log ratio LPCAT3 (ILMN_1805225): 6.30E-01 | log ratio LRCH4 (probe ILMN_2157075): 8.54E-01 | log ratio LRP8 (ILMN_1677765): -8.68E-01 | log ratio LRRC1 (probe ILMN_1755383): 7.83E-01 | log ratio LRRC16 (ILMN_1736730): 5.94E-01 | log ratio LRRC32 (ILMN_2129161): 6.30E-01 | log ratio LRRC33 (ILMN_1746148): -1.42E+00 | log ratio LRRFIP2 (ILMN_1707156): 6.31E-01 | log ratio LRRK1 (ILMN_1696004): -8.42E-01 | log ratio LTA4H (probe ILMN_1690342): 7.50E-01 | log ratio LUZP1 (ILMN_1714159): 6.25E-01 | log ratio LYAR (ILMN_1764362): -8.62E-01 | log ratio LYAR (ILMN_2221564): -9.24E-01 | log ratio LYRM5 (probe ILMN_1744534): 7.90E-01 | log ratio LYRM7 (ILMN_3238623): 6.34E-01 | log ratio LYSMD4 (probe ILMN_2159859): 6.95E-01 | log ratio MAD2L2 (ILMN_1669550): 6.43E-01 | log ratio MAK16 (ILMN_1777139): -7.86E-01 | log ratio MAP1LC3B (probe ILMN_1703244): 7.73E-01 | log ratio MAP1S (ILMN_1796336): 6.11E-01 | log ratio MAP2K1 (probe ILMN_1694240): 7.15E-01 | log ratio MAPKAPK2 (ILMN_1774844): 6.77E-01 | log ratio MAPRE2 (probe ILMN_1695276): 7.72E-01 | log ratio MARCKSL1 (probe ILMN_1714433): 8.47E-01 | log ratio MAST3 (probe ILMN_1738749): 7.21E-01 | log ratio MCL1 (ILMN_1756806): 6.49E-01 | log ratio MCRS1 (ILMN_1784227): -9.30E-01 | log ratio MED24 (ILMN_2388272): -6.00E-01 | log ratio MEPCE (ILMN_2180827): -8.77E-01 | log ratio METTL1 (ILMN_1815190): -9.82E-01 | log ratio METTL1 (ILMN_3306997): -9.97E-01 | log ratio MEX3C (ILMN_1658182): -6.16E-01 | log ratio MGC3731 (ILMN_1759991): -9.43E-01 | log ratio MGEA5 (ILMN_1686750): 6.73E-01 | log ratio MINA (ILMN_1746025): -5.93E-01 | log ratio MNS1 (probe ILMN_2157240): 7.07E-01 | log ratio MPDU1 (ILMN_1655654): -1.02E+00 | log ratio MPDU1 (ILMN_2070815): -8.19E-01 | log ratio MRLC2 (ILMN_1654016): 5.90E-01 | log ratio MRPL3 (ILMN_1713143): -8.76E-01 | log ratio MRPL20 (ILMN_2189424): -8.46E-01 | log ratio MRPL24 (ILMN_2398995): -6.00E-01 | log ratio MRPL35 (ILMN_2341952): -5.96E-01 | log ratio MRPL54 (ILMN_1658486): -9.87E-01 | log ratio MRPS26 (ILMN_1676026): -7.88E-01 | log ratio MRPS30 (ILMN_1726743): -5.98E-01 | log ratio MRPS35 (ILMN_2189993): -8.24E-01 | log ratio MRTO4 (ILMN_1689800): -9.19E-01 | log ratio MTE (probe ILMN_2136089): 8.56E-01 | log ratio MTHFD1L (ILMN_1772521): -9.66E-01 | log ratio MTHFS (ILMN_1772302): -1.28E+00 | log ratio MTP18 (ILMN_2355665): -9.91E-01 | log ratio MTX3 (ILMN_1679071): -6.10E-01 | log ratio MYB (ILMN_1711894): -9.88E-01 | log ratio MYBL1 (probe ILMN_3241046): 7.69E-01 | log ratio MYD88 (ILMN_1738523): -1.17E+00 | log ratio MYH9 (ILMN_1722872): 6.24E-01 | log ratio MYH10 (ILMN_1815154): 5.97E-01 | log ratio N6AMT2 (ILMN_1730260): -9.90E-01 | log ratio NARG1 (ILMN_1669142): -6.10E-01 | log ratio NBN (ILMN_1734833): -9.40E-01 | log ratio NECAP2 (ILMN_1749011): 6.12E-01 | log ratio NEK2 (ILMN_2051373): 6.21E-01 | log ratio NGDN (ILMN_1690049): -6.03E-01 | log ratio NIP7 (ILMN_1704305): -1.05E+00 | log ratio NLGN2 (ILMN_1764158): 6.16E-01 | log ratio NMI (ILMN_1739541): -9.86E-01 | log ratio NOL6 (ILMN_2320250): -8.75E-01 | log ratio NOL11 (ILMN_1688971): -7.88E-01 | log ratio NOP16 (ILMN_3247723): -1.13E+00 | log ratio NOSIP (probe ILMN_1759436): 7.06E-01 | log ratio NPC2 (probe ILMN_1716678): 8.44E-01 | log ratio NPHP3 (ILMN_1730539): 6.73E-01 | log ratio NPL (probe ILMN_1782070): 7.76E-01 | log ratio NPL (probe ILMN_2149494): 8.88E-01 | log ratio NQO2 (probe ILMN_1712918): 8.69E-01 | log ratio NSMAF (ILMN_1716596): -1.37E+00 | log ratio NUB1 (probe ILMN_1665291): 7.20E-01 | log ratio NUCKS1 (ILMN_3251404): -5.98E-01 | log ratio NUDT6 (ILMN_2366972): 5.92E-01 | log ratio NUDT15 (ILMN_1751403): -5.98E-01 | log ratio NUMB (probe ILMN_2331266): 7.27E-01 | log ratio NUP188 (ILMN_1715416): -5.95E-01 | log ratio NXF1 (probe ILMN_1705783): 8.80E-01 | log ratio NXF1 (probe ILMN_2358652): 7.18E-01 | log ratio NXT1 (ILMN_1760280): -8.51E-01 | log ratio OAS2 (ILMN_2248970): -1.29E+00 | log ratio OSBPL2 (ILMN_1656482): 6.07E-01 | log ratio P704P (probe ILMN_1793950): 6.85E-01 | log ratio PAG1 (ILMN_2055156): 6.63E-01 | log ratio PAQR3 (ILMN_1716071): 6.81E-01 | log ratio PAQR8 (probe ILMN_1694589): 7.20E-01 | log ratio PCMT1 (ILMN_1671621): 6.27E-01 | log ratio PCTP (ILMN_1802257): 6.55E-01 | log ratio PCYOX1 (probe ILMN_1679725): 7.89E-01 | log ratio PDCD2 (ILMN_1758915): -8.70E-01 | log ratio PDXK (probe ILMN_1672504): 8.94E-01 | log ratio PECI (probe ILMN_2384536): 8.25E-01 | log ratio PEMT (ILMN_1745806): -5.93E-01 | log ratio PEX16 (probe ILMN_1745655): 7.84E-01 | log ratio PFKFB3 (ILMN_2186061): 6.71E-01 | log ratio PHF5A (ILMN_2112402): -8.44E-01 | log ratio PHF15 (ILMN_1795285): -8.13E-01 | log ratio PHF19 (ILMN_1713249): -1.52E+00 | log ratio PHF19 (ILMN_1745420): -1.01E+00 | log ratio PIGW (ILMN_1743397): -1.03E+00 | log ratio PIM2 (probe ILMN_1748283): 7.43E-01 | log ratio PITX1 (ILMN_1674386): -8.58E-01 | log ratio PKIA (ILMN_1762262): 6.12E-01 | log ratio PKIA (probe ILMN_2337974): 7.37E-01 | log ratio PLD3 (probe ILMN_1666976): 8.81E-01 | log ratio PLD6 (ILMN_1731518): -1.18E+00 | log ratio PLD6 (ILMN_3240586): -1.84E+00 | log ratio PLIN2 (ILMN_2138765): 5.92E-01 | log ratio PLS1 (ILMN_1759206): 6.43E-01 | log ratio PLXNA3 (ILMN_1719972): 6.52E-01 | log ratio PMAIP1 (probe ILMN_2098446): 8.50E-01 | log ratio PNKD (probe ILMN_1774604): 7.25E-01
